From patent EP4644389A1, “PRMT5-MTA INHIBITOR” (Suzhou Puhe Biopharma Co., Ltd., priority 2022, dated 2024)

Assays:
MDR1 = assay: MDCK-MDR1 membrane permeability assay; assay type: in vitro ADME; conditions: dog, pH 7.4; MDCK-MDR1, Efflux Ratio = Papp (B-A)/Papp (A-B)
Experimental: (§1) Evaluation of membrane permeability of the molecules of the present invention to predict their permeability for the brain.
(§2) Specifically: 1. Pre-incubate MDCK-MDR1 cells at a density of 1.56×10^6 cells/mL, inoculate them in a 96-well plate to culture at 37°C for 7 days; 2. Remove the MDCKII-MDR1 plate from the incubator, wash twice with pre-warmed HBSS (10 mM HEPES, pH 7.4), and incubate at 37°C for 30 minutes; 3. Dilute the stock solution of the test compound with DMSO to obtain a 0.2 mM solution, then further dilute it with HBSS (10 mM HEPES, pH 7.4) to prepare a 1 µM working solution. For the blank control group, dilute with DMSO to obtain a 0.2 mM solution, then further dilute with HBSS (10 mM HEPES, pH 7.4) to obtain a 1 µM working solution. The final concentration of DMSO in the culture system is 0.5%; 4. Measure the transport rate of the drug from the apical side to the basolateral side. Add 125 µL of the 1 µM test compound solution into the Transwell insert (apical chamber) and immediately transfer 50 µL of the sample (D0 sample) from the apical chamber to a new 96-well plate. Fill the receptor plate wells (basolateral chamber) with 235 µL HBSS (10 mM HEPES, pH 7.4) and incubate at 37°C for 2 hours; 5. At the end of the incubation, transfer 50 µL of the sample from both the donor side and the acceptor side into the wells of a new 96-well plate, then add four volumes of cold acetonitrile containing the appropriate internal standard (IS). Before the LC-MS/MS analysis, take 100 µL of the supernatant and mix it with an appropriate volume of ultrapure water. Papp = (VA×⌊drug⌋acceptor)/(Area×Time×⌊drug⌋initial,donor) [formula] wherein VA is the volume of the acceptor well (unit: mL), area is the membrane surface area (for Transwell-96 well permeable support, it is 0.143 cm^2), and time is the total transport time (in seconds). Efflux Ratio = Papp (B−A)/Papp (A−B) [formula]

MDCK-MDR1 cells = assay: MDCK-MDR1 membrane permeability assay; assay type: in vitro ADME; conditions: MDCK-MDR1, Efflux Ratio = Papp (B-A)/Papp (A-B)
Experimental: as §1, §2

MDR1 (P-gp) = assay: MDCK-MDR1 membrane permeability assay; assay type: in vitro ADME; conditions: dog; MDCK-MDR1, 1 µM, pH 7.4, 2 hours
Experimental: as §1, §2

[1] = Liver microsomal stability, human; assay type: in vitro ADME; conditions: human liver microsomes 0.5 mg/mL, compound 1 µM, NADPH 1 mM, 60 minutes
Experimental: Microsomal stability experiment of the compound. The details are as follows: A microsomal stability test was conducted on the compounds of the present invention. The test compounds were co-incubated with liver microsomes from different species, with or without the addition of NADPH. In the test system, the final concentration of the test compound was 1 µM, the final concentration of NADPH was 1 mM, and the final concentration of liver microsomes was 0.5 mg/mL.

HCT116-MTAPdel = assay: 2D anti-proliferation assay (CTG luminescence), MTAP-deficient HCT116 cells; assay type: cell-based
Experimental: (§3) HCT116 wild-type and MTAP-deficient cells were cultured in MCCOYS 5A medium containing 10% FBS and 1% penicillin-streptomycin and incubated in a 37°C, 5% CO2 incubator. A 40 µL cell suspension was added to each well of a 384-well microplate. Using Echo, 40 nL of the compound at different concentrations were added to each well, followed by incubation in a 37°C, 5% CO2 incubator for 7-10 days. 40 µL of CTG solution (Promega, Cat No. G7573) was added to each well and incubated away from light in a 37°C, 5% CO2 incubator for 30 minutes. Luminescence was measured using an Envision multimode plate reader (Perkin Elmer, Catalog No. Envision 2104). The luminescence signal was proportional to the ATP content in the system, and the ATP content directly reflected the number of viable cells in the system.

HCT116-MTAPwt = assay: 2D anti-proliferation assay (CTG luminescence), wild-type HCT116 cells; assay type: cell-based; conditions: Homo sapiens, HCT-116, 7-10 days incubation
Experimental: By testing the activity of both of them, the inhibitory effect and selectivity of the molecules of the present invention for PRMT5 at the cellular level were shown.
as §3
ICso value calculation: [formula] • X: Log value of compound concentration • Y: Inhibition rate (%) Table 1: 2D Anti-proliferation Effects of Compounds on HTC116-MTAP del and Wild-type Colorectal Cancer HCT-116 Cell Lines.

[2] = Pharmacokinetic evaluation in mice (IV and oral); conditions: female, CD1, mouse, in vivo
Experimental: CD1 female mice were used as test animals, and the compounds were administered orally or intravenously (oral dose of 10 mg/kg; intravenous dose of 2 mg/kg).
Experiment protocol: Three mice per group for oral administration, and three mice per group for intravenous administration. Oral: Plasma samples were collected before administration (0 h) and at 0.25, 0.5, 1, 2, 4, 8, and 24 hours post-administration; Intravenous: Plasma samples were collected before administration (0 h) and at 0.083, 0.25, 0.5, 1, 2, 4, 8, and 24 hours post-administration. The plasma drug concentrations in mice after oral and intravenous administration were determined using LC/MS/MS, and the collected data were analyzed using AB Sciex QTRAP 6500 software.

[3] = Caco-2 membrane permeability assay; assay type: in vitro ADME; conditions: human
Experimental: (§4) Evaluation of membrane permeability of the molecules of the present invention. Samples will be analyzed using LC-MS to estimate the apparent permeability coefficient (Papp) of the compound in Caco-2 monolayer cells, wherein the pH of the apical chamber is 6.5, and the pH of the basolateral chamber is 7.4. The P-gp efflux transporter, BCRP, and MRP2 inhibitors (50 µM quinidine, 30 µM benzbromarone, and 20 µM sulfasalazine) can block the active efflux transport of the compound. The data will be used for calculating apparent permeability (Papp). Papp = (VA×⌊drug⌋acceptor)/(Area×Time×⌊drug⌋initial,donor) [formula] wherein, VA is the volume of the receptor well (unit: mL), area is the membrane surface area (for Transwell-96 well permeable support, it is 0.143 cm^2), and time is the total transport time (unit: seconds). Efflux Ratio = Papp (B−A)/Papp (A−B) [formula]

Caco-2 monolayer cells = assay: Caco-2 membrane permeability assay; assay type: in vitro ADME; conditions: Caco-2, Efflux Ratio = Papp (B-A)/Papp (A-B)
Experimental: as §4

[4] = Caco-2, apical pH 6.5, basolateral pH 7.4

SMILES: Cc1c(CO)c(N)nc2cc(F)c(C(=O)N(C)[C@@H]3COc4cc(C(F)(F)F)ccc43)cc12 [Compound A9a]
- efflux ratio at 2 h, 1 µM (MDR1): 1.2
- Efflux (MDCK-MDR1 cells): 1.2
- Papp A→B at 2 h, 1 µM (MDR1 (P-gp)): 5.1 ×10⁻⁶ cm/s
- Papp B→A at 2 h, 1 µM (MDR1 (P-gp)): 5.9 ×10⁻⁶ cm/s
- CLint scaled at 1 µM [1]: 8.9 mL/min/kg
- IC50 (HCT116-MTAPdel; Homo sapiens, HCT-116, HCT116 MTAP-deficient cells, 7-10 days incubation, CTG, read-out: HCT116-MTAPdel/IC50/nM): 16 nM
- HCT116 WT/MTAPdel Selectivity (HCT116-MTAPdel; ratio of IC50 HCT116 WT / MTAPdel): 130
- IC50 (HCT116-MTAPwt): 2470 nM
- bioavailability [2]: 81%
- AUC(0-t) ([2]; iv, 2 mg/kg): 19500 ng·h/mL
- C0 ([2]; iv, 2 mg/kg): 4010 ng/mL
- clearance ([2]; iv, 2 mg/kg): 1.7 mL/min/kg
- half-life ([2]; iv, 2 mg/kg): 3.3 h
- AUC(0-t) ([2]; po, 10 mg/kg): 74200 ng·h/mL
- Cmax ([2]; po, 10 mg/kg): 5340 ng/mL
- Tmax ([2]; po, 10 mg/kg): 2 h
- half-life ([2]; po, 10 mg/kg): 5.9 h
- efflux ratio ([3]; Caco-2, Efflux Ratio = Papp (B-A)/Papp (A-B)): 1.6
- Papp A→B [3, 4]: 6.9 ×10⁻⁶ cm/s
- Papp B→A [3, 4]: 10.8 ×10⁻⁶ cm/s
- Efflux (Caco-2 monolayer cells): < 2
